The results in this text go back to patent US20260034094A1, “COMPOSITIONS AND METHODS FOR INDUCING FERROPTOSIS” (Kojin Therapeutics, Inc., priority 2022, published 2026).

Structures are written as SMILES. pEC50: −log10 of the molar value.

This test concerns RKN cells. The test is described as follows: RKN cell profiling assay (cell viability, CellTiter-Glo). It is filed as cell-based. The note with it: cell viability, read-out: Cell Killing EC50. As to the method:
RKN cells were suspended in assay medium (F-12 medium supplemented with 10% FBS and penicillin/streptomycin) and seeded at 1,000 cells per well (30 μL total volume) in opaque white 384-well plates (Corning). Cells were allowed to adhere for 24 h at 37° C. (95% humidity, 5% CO2) and then exposed to compounds disclosed herein for 72 h, or in the present case, 96 h. DMSO stock solutions of compounds were added to cells using a D300e Digital Dispenser (Tecan). The final DMSO concentration in each well was normalized to 0.5% (v/v) after compound treatment. Cell viability was measured using CellTiter-Glo (Promega). After incubation for 15 min at room temperature, luminescence was measured using a PHERAstar FSX microplate reader (BMG Labtech). Ferroptosis rescue experiments were performed as described previously using cells treated with ferrostatin-1 (fer-1, 1.5 μM) when seeding assay plates. Dose-response data were analyzed to determine EC50 values with GraphPad Prism 9 software using a four-parameter logistic equation or CDD Vault (Collaborative Drug Discovery) using the Levenberg-Marquardt algorithm.
In general terms: ATP-based viability assays read luminescence as a measure of living cells.
Broadly, the pEC50 is −log10 of the EC50, conventionally taken in molar units. For `N=S(=O)(CCC(c1ccc(S(=O)(=O)Cc2ccccc2)cc1)C(F)(F)F)CC[C@H](N)C(=O)O` (stereo partly shown) [Compound 291], the pEC50 was ≤ 3.00.
Take `N=S(=O)(CCC(c1cccc2ccccc12)C(F)(F)F)CC[C@H](N)C(=O)O` (stereo partly shown) [Compound 311]: the pEC50 was > 3.00.
Regarding `N=S(=O)(CCC(c1ccccn1)C(F)(F)F)CC[C@H](N)C(=O)O` (stereo partly shown) [Compound 313], the pEC50 is > 3.00.
`N=S(=O)(CCC(c1ccc(-c2ccccc2)cc1Cl)C(F)(F)F)CC[C@H](N)C(=O)O` (stereo partly shown) [Compound 315]: the pEC50 was ≤ 3.00.
As for `N=S(=O)(CCC(c1ccc(Oc2ccccc2)cc1)C(F)(F)F)CC[C@H](N)C(=O)O` (stereo partly shown) [Compound 316], the pEC50 is > 3.00.
For the compound `N=S(=O)(CCC(c1ccc(-c2ccc(Cl)cc2Cl)cn1)C(F)(F)F)CC[C@H](N)C(=O)O` (stereo partly shown) [Compound 317], the pEC50 was > 3.00.
On to `N=S(=O)(CCC(c1ccc(Oc2ccc(Cl)cc2Cl)cc1)C(F)(F)F)CC[C@H](N)C(=O)O` (stereo partly shown) [Compound 318], for which the negative-log EC50 (pEC50) is > 3.00.
For the compound `N=S(=O)(CCC(CO)C(F)(F)F)CC[C@H](N)C(=O)O` (stereo partly shown) [Compound 320], the pEC50 is > 3.00.
As to `N=S(=O)(CC[C@H](N)C(=O)O)CCC(O)(c1ccn(-c2ccc(Cl)cc2Cl)n1)C(F)(F)F` (stereo partly shown) [Compound 336], the negative-log EC50 (pEC50) was ≤ 3.00.
Turning to `N=S(=O)(CC[C@H](N)C(=O)O)CCC(O)(c1cc(-c2ccc(Cl)cc2Cl)cs1)C(F)(F)F` (stereo partly shown) [Compound 337], the pEC50 is > 3.00.
With `N=S(=O)(CC[C@H](N)C(=O)O)CCC(O)(c1ccc(OC2CCCCC2)cc1)C(F)(F)F` (stereo partly shown) [Compound 339], the pEC50 is > 3.00.
Regarding `N=S(=O)(CC[C@H](N)C(=O)O)CCC(O)([C@H]1CC[C@H](c2ccc(Cl)cc2Cl)CC1)C(F)(F)F` (stereo partly shown) [Compound 340], the negative-log EC50 (pEC50) was > 3.00.
For `N=S(=O)(CC[C@H](N)C(=O)O)CCC(O)([C@H]1CC[C@@H](c2ccc(Cl)cc2Cl)CC1)C(F)(F)F` (stereo partly shown) [Compound 341], the pEC50 was > 3.00.
On to `N=S(=O)(CC[C@H](N)C(=O)O)CCC(O)(c1ccc(Oc2ccc(Cl)cc2Cl)cc1)C(F)(F)F` (stereo partly shown) [Compound 342], for which the pEC50 is > 3.00.
As for `N=S(=O)(CC[C@H](N)C(=O)O)CCC(O)(c1cnc(-c2ccc(Cl)cc2Cl)nc1)C(F)(F)F` (stereo partly shown) [Compound 366], the negative-log EC50 (pEC50) is > 3.00.
Regarding `N=S(=O)(CC[C@H](N)C(=O)O)CCC(O)(c1cnc(-c2ccc(Cl)cc2Cl)cn1)C(F)(F)F` (stereo partly shown) [Compound 367], the pEC50 was > 3.00.
As to `N=S(=O)(CC[C@H](N)C(=O)O)CCC(O)(c1ccc2ccccc2n1)C(F)(F)F` (stereo partly shown) [Compound 373], the pEC50 was > 3.00.
The same measure for `N=S(=O)(CCC(c1ccc2[nH]nnc2c1)C(F)(F)F)CC[C@H](N)C(=O)O` (stereo partly shown) [Compound 393]: ≤ 3.00; for `N=S(=O)(CCC(c1ccccc1O)C(F)(F)F)CC[C@H](N)C(=O)O` (stereo partly shown) [Compound 397]: > 3.00.
Regarding `N=S(=O)(CCC(c1ccc2[nH]cnc2c1)C(F)(F)F)CC[C@H](N)C(=O)O` (stereo partly shown) [Compound 399], the pEC50 is ≤ 3.00.
In the case of `N=S(=O)(CC[C@H](N)C(=O)O)CCC1(c2ccc(Oc3ccc(Cl)cc3Cl)cc2)CCC1` (stereo partly shown) [Compound 403], the pEC50 is ≤ 3.00.
Consider `N=S(=O)(CCC(N1CCN(c2ccc(Cl)cc2Cl)CC1)C(F)(F)F)CC[C@H](N)C(=O)O` (stereo partly shown) [Compound 423], for which the pEC50 is > 3.00.
On to `Cc1ccccc1-c1ccc(C(O)(CCS(=N)(=O)CC[C@H](N)C(=O)O)C(F)(F)F)cc1` (stereo partly shown) [Compound 429], for which the pEC50 was > 3.00.
Consider `Cc1cc(Cl)ccc1-c1ccc(C(O)(CCS(=N)(=O)CC[C@H](N)C(=O)O)C(F)(F)F)cc1` (stereo partly shown) [Compound 430], for which the pEC50 is > 3.00.
Turning to `N=S(=O)(CC[C@H](N)C(=O)O)CCC(O)(c1ccc(-c2ccc(Cl)cc2)cc1)C(F)(F)F` (stereo partly shown) [Compound 431], the negative logarithm of the EC50 (pEC50) was > 3.00.
For the compound `Cc1ccc(-c2ccc(C(O)(CCS(=N)(=O)CC[C@H](N)C(=O)O)C(F)(F)F)cc2)c(Cl)c1` (stereo partly shown) [Compound 432], the negative-log EC50 (pEC50) is > 3.00.
`Cn1ncc(-c2ccc(C(O)(CCS(=N)(=O)CC[C@H](N)C(=O)O)C(F)(F)F)cc2)cc1=O` (stereo partly shown) [Compound 433]: the pEC50 was ≤ 3.00.
In the case of `N=S(=O)(CC[C@H](N)C(=O)O)CCC(O)(c1cccc(-c2ccccc2)c1)C(F)(F)F` (stereo partly shown) [Compound 435], the pEC50 is ≤ 3.00.
`Cc1ccc(-c2ccc(C(O)(CCS(=N)(=O)CC[C@H](N)C(=O)O)C(F)(F)F)cc2)c(F)c1` (stereo partly shown) [Compound 437]: the pEC50 was > 3.00.
In the case of `Cc1cc(C(O)(CCS(=N)(=O)CC[C@H](N)C(=O)O)C(F)(F)F)ccc1-c1ccc(Cl)cc1Cl` (stereo partly shown) [Compound 443], the pEC50 was > 3.00.
Take `N=S(=O)(CC[C@H](N)C(=O)O)CCC(O)(c1ccc(-c2ccc(Cl)cc2Cl)cn1)C(F)(F)F` (stereo partly shown) [Compound 465]: the pEC50 is ≤ 3.00.
Take `N=S(=O)(CC[C@H](N)C(=O)O)CCC(O)(c1ccc(-c2ccc(Cl)cc2Cl)cn1)C(F)(F)F` (stereo partly shown) [Compound 466]: the pEC50 was > 3.00.
The same measure for `N=S(=O)(CC[C@H](N)C(=O)O)CCC(O)(c1ncc(-c2ccccc2)cn1)C(F)(F)F` (stereo partly shown) [Compound 467]: > 3.00; for `N=S(=O)(CC[C@H](N)C(=O)O)CCC(O)(c1ncc(-c2ccc(Cl)cc2Cl)cn1)C(F)(F)F` (stereo partly shown) [Compound 468]: > 3.00.
On to `N[C@@H](CCS(=O)(=O)CCC(O)(c1ncc(-c2ccc(Cl)cc2Cl)cn1)C(F)(F)F)C(=O)O` (stereo partly shown) [Compound 470], for which the negative-log EC50 (pEC50) is ≤ 3.00.
As to `Cc1ccccc1-c1ccc(C(O)(CCS(=N)(=O)CC[C@H](N)C(=O)O)C(F)(F)F)nc1` (stereo partly shown) [Compound 471], the negative-log EC50 (pEC50) is > 3.00.
With `Cn1cc(-c2ccc(C(O)(CCS(=N)(=O)CC[C@H](N)C(=O)O)C(F)(F)F)nc2)cn1` (stereo partly shown) [Compound 472], the pEC50 was ≤ 3.00.
The result for `Cc1cc(Cl)ccc1-c1cnc(C(O)(CCS(=N)(=O)CC[C@H](N)C(=O)O)C(F)(F)F)nc1` (stereo partly shown) [Compound 474] reads > 3.00.
Turning to `N=S(=O)(CC[C@H](N)C(=O)O)CCC(O)(c1ccc(C2CCCCC2)cn1)C(F)(F)F` (stereo partly shown) [Compound 476], the pEC50 was > 3.00.
On to `N=S(=O)(CC[C@H](N)C(=O)O)CCC(O)(c1ccc(-c2ccco2)cn1)C(F)(F)F` (stereo partly shown) [Compound 481], for which the pEC50 is > 3.00.
